Results on one compound are retold here after PMC10066322 (Scientific Reports, 2023).

The subject of one assay is PARN level in Hela cells. Nature of the assay: Western blot of PARN protein level in Hela cells. The class given is cell-based, human. Conditions: 50 μM, 2 days. An excerpt:
The blot was blotted against anti-PARN antibody. (b) Quantification of the changes in PARN levels of western blot using GAPDH as loading controls. siPARN and drug treatments were normalized to scramble siRNA and DMSO controls, respectively. siPARN and drug treatment data were compared to scr and DMSO data, respectively. One-way ANOVA, multiple comparisons test. Average ± SD, N = 3 biological replicates, n = 1. […] (d) Quantification of miR-21-5p levels normalized to U1 RNA. One-way ANOVA, multiple comparisons test, average ± SD, N = 3 biological replicates, n = 1. […] One-way ANOVA, multiple comparisons test, average ± SD, N = 3 biological replicates, n = 2. (f) Representative northern blot showing that miR-21-5p levels decreased in TH11, TH15, and TH16 treatments. […] (g) Quantification of miR-21-5p levels normalized to U1 RNA. […] For nothern blot and RT-qPCR quantifications, Scr and DMSO controls were independently set to 1 and used as control for siPARN and drug treatments, respectively. *P < 0.05, **P < 0.005, ***P < 0.001, ****P < 0.0001, n.s. was not indicated. […]
Cells was lysed with 2× lysis buffer (2.5% SDS, 4% BME, protease inhibitor) and was separated on a 4–12% Bis–Tris NuPage gel (ThermoFisher) and transferred to protran membrane (Amer- sham). […] Blot was quantified using ImageJ and normalized to GAPDH levels (GAPDH antibody (0411) HRP) (Santa Cruz Biotechnology, sc-47724 HRP).
(In general: In western blotting, separated proteins are transferred to a membrane and probed.)

Assay [1] has as its target ACK1 (activated CDC42 kinase 1). Conditions: cited from earlier work.
Assay [2] addresses GCK (germinal center kinase). Conditions: cited from earlier work.
The target in another assay is T1, PARN1-430 (Homo sapiens, UniProt O95453).
T1 construct: expression of the C-terminal truncated protein (1-430 aa of PARN) was soluble; His tag (from the pCold I vector); made in house; host or cells: E. coli Rosetta 2 DE
T1 sequence (O95453 1-430): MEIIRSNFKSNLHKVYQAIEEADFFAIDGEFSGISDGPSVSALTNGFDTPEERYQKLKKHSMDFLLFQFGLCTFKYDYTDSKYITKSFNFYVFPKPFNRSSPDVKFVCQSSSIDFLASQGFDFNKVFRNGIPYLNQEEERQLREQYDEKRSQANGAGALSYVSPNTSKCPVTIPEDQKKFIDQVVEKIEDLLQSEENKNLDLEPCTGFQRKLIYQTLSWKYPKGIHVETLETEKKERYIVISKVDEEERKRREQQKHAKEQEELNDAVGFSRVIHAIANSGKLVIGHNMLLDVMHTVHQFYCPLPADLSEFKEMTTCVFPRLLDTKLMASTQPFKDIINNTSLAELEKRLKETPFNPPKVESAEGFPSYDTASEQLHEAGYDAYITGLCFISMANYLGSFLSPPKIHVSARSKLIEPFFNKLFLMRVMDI
Put plainly: Gel assay of poly(A) RNA shortening by PARN1-430. Format: biochemical. Here is the method:
PARN1-430 was incubated with a fluorescently labeled RNA with a CCUUUCC sequence followed by a 9 nucleotide-long poly(A) tail and the reaction product was visualized on denaturing acrylamide gels. We observed that PARN removed the 3′ oligo(A) tail from the RNA substrate (Fig. 2c and d). […] Moreover, we observed that PARN is inhibited when treated with adenosine monophosphate (AMP), as has been reported previously.
1 µL of protein (73 nM as final concentration) (stock protein is diluted in 1× lysis buffer (HEPES KOH, pH 7.4, 30 mM, KOAc 100 mM, and Mg(Oac)2 2 mM) was added to 4 µL of 2.5× reaction buffer (Tris–HCl pH 7.4, 10 mM, KCl 50 mM, MgCl2 5 mM). If drug was added, reaction was pre-incubated with drugs for 10 min before 5 µL of RNA (5 µM as final concentration) was added. The reaction was incubated at 37 °C for 20 min. After the incubation, the reaction was either diluted with 2× loading buffer and heated to 95 °C for 5 min for gel or quenched by adding 10 µL of quencher solution (30 µM of 3′-BHQ labeled quench DNA in 1% SDS). Quenched reaction was incubated at room temperature for 10–60 min and fluorescence was measured using Fluorescein wavelength measurement.
15% TBE-Urea gel (Thermo Fisher Scientific) was prerun at 20W for 30 min. RNAs from the reaction was loaded into 15% TBE gels and run at 300 V for 35 min. The gel was visualized using iBright (Invitrogen FL1500).

The structures appear in SMILES notation.

Broadly, the IC50 is the concentration needed to halve the response being measured. In the case of `Cc1ccc(Nc2ncc3c(n2)N(C)C(=O)N(c2cc(NC(=O)c4cccc(C(F)(F)F)c4)ccc2C)C3)cn1` [GNF-7], the “PARN level (western blot)” value with PARN level in Hela cells was “do not affect PARN level”. Besides, the IC50 was 25 nM in assay [1] and 8 nM in assay [2]. Besides, the “inhibitory effect on PARN1-430, gel assay” value against PARN1-430 is “most effective PARN1-430 inhibitor”.
